Measured values from patent US20050020542A1, “Method of modulating sodium ion absorption in epithelial cells” (priority 2001, published 2005).
Entries after “also recorded” stand apart in the source; their conditions may differ. Where two headings read alike, the source gives them in different places.

Target: T1, epithelial sodium channel (ENaC) (Homo sapiens, UniProt P37088+P51168+P51170)
T1 construct: Nasal Polyps were surgically obtained from a CF patient; endogenous in cells; host or cells: primary cystic fibrosis human nasal epithelial (CFHNE) cells from nasal polyps of a CF patient, grown at air-liquid interface
T1 sequence (P37088 1-669): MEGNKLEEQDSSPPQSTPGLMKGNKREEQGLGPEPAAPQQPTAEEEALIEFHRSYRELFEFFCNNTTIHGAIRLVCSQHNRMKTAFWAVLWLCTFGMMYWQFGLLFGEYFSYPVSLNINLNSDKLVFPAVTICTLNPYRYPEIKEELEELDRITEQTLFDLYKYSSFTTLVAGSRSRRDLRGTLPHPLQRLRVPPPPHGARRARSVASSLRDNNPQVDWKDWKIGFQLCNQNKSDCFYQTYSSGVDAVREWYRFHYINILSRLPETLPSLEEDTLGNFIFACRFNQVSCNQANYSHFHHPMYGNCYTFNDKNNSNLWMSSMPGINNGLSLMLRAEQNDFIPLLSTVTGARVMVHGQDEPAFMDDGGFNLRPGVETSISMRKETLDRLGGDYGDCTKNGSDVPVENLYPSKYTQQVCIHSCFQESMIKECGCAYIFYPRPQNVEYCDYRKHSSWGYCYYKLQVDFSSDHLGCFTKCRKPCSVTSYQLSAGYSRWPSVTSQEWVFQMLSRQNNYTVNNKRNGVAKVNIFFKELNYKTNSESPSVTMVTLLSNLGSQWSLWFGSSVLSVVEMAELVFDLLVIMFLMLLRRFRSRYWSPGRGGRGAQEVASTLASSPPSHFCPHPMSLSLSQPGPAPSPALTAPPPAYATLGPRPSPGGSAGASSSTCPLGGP
T1 sequence (P51168 1-640): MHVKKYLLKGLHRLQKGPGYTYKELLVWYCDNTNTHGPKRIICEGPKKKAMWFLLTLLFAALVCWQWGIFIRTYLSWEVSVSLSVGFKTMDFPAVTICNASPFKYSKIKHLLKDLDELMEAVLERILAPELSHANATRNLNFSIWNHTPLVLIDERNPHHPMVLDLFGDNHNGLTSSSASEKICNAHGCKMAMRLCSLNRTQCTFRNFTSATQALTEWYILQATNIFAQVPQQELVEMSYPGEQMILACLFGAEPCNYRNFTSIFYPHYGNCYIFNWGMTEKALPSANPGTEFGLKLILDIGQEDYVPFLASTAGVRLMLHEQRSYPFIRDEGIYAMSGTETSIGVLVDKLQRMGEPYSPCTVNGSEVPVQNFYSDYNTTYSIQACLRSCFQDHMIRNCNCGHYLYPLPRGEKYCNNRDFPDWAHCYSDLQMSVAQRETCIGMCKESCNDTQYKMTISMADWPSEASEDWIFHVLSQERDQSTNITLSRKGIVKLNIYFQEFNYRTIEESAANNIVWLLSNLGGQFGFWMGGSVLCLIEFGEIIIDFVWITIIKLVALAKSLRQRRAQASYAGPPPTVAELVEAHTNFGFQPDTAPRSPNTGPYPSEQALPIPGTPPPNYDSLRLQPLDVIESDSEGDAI
T1 sequence (P51170 1-649): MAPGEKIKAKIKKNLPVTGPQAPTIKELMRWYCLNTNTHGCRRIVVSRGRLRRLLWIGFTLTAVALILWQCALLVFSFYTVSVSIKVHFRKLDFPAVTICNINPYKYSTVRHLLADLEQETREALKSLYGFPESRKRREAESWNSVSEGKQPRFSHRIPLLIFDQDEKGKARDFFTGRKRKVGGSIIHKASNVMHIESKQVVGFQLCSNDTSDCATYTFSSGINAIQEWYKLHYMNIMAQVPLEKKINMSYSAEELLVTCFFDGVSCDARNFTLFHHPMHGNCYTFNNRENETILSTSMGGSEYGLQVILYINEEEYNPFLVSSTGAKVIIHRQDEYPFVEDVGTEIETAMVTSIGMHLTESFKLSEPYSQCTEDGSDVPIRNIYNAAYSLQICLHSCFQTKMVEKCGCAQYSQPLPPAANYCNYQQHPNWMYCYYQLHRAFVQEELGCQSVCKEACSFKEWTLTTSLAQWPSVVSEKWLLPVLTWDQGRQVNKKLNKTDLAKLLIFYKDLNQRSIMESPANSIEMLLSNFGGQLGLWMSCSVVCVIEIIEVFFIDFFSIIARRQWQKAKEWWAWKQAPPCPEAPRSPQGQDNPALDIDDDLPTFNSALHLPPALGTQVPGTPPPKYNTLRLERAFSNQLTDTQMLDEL
Assay: Cystic fibrosis human nasal epithelial (CFHNE) cell Ussing chamber assay, short-circuit current (Isc)
Format: cell-based
Procedure: Sodium uptake inhibiting and enhancing inositol polyphosphate compounds are determined by the cystic fibrosis human nasal epithelial (CFHNE) cell assay, as described in detail in Examples 1 and 2, i.e., by mounting monolayers of human CF nasal epithelial cells in Ussing chambers, and then monitoring short-circuit current (Isc) and resistance after contact with a test inositol polyphosphate compound.
Elevated basal Isc measured in monolayer cultures in Ussing Chambers is a prominent characteristic of cultures of CF human nasal airway epithelia that distinguishes it from normal tissue. Although basal Isc is largely driven by sodium channel activity (ENaC) it has been closely associated with both CFTR and Ca^2+ activated Cl^− channels. (Devor and Pilewski, 1999; Inglis et al., 1999; Mall et al., 1999; Ramminger et al., 1999; Wang and Chan, 2000).
CF Human Nasal Epithelial (CFHNE) Cell Isolation and Proliferation: Nasal Polyps were surgically obtained from a CF patient at Children's Hospital (Seattle, Wash.), transported, on ice in a sterile container containing a 1:1 mixture of Dulbecco's modification of minimum essential medium Eagle and Ham's F-12 nutrient medium (DMEM/F-12)(Irvine Scientific, Santa Ana, Calif.) supplemented with 100 U/ml penicillin, 0.1 mg/ml streptomycin, 10 mM HEPES, and 2 mM L-glutamine. The tissue samples were aseptically removed from the transport medium and washed (repeated 5×) by suspending in 40 ml of Joklik's modification of minimum essential medium Eagle (JMEM) at 4° C., and centrifuging at 500 RPM. The supernatant was aspirated and discarded. The tissue was then transferred to JMEM containing 200 U/ml penicillin, 0.2 mg/ml streptomycin, 0.1 mg/ml gentamycin sulfate (Clonetics, San Diego, Calif.), and 0.1 μg/ml amphotericin-B (Clonetics), and 0.1% Protease (Sigma), washed an additional 2×, suspended in 15 ml in a 10 cm tissue culture dish, and incubated at 4° C. for 24 hours. The tissue samples were then gently triturated, the connective tissue aseptically removed, and the remaining cell suspension centrifuged at 1000 RPM for 5 min. The supernatant was aspirated and the pellet was resuspended in 10 ml JMEM with 0.025% trypsin-EDTA and allowed to incubate for 5 min. After 5 min., 10% Fetal Bovine Serum (FBS) was added to deactivate the trypsin, and the cell suspension was centrifuged at 1000 RPM. The supernatant was aspirated and the cell pellet was resuspended in a proliferation media consisting of Keratinocyte-Serurm Free Medium (KSFM)(Gibco-BRL, Grand Island, N.Y.) containing 5 ng/ml EGF (Gibco), 50 μg/ml BPE (Gibco), 100 U/ml penicillin, 0.1 mg/ml streptomycin, and 2 mM L-glutamine. The cell suspension was transferred to 2, 10 cm tissue culture dishes coated with 1 μg/cm^2 Vitrogen (Becton-Dickinson, Bedford, Mass.), incubated at 37° C. in a humidified atmosphere of 5% CO2 and 95% air. The cells were allowed to grow for 6 days (70-80% confluence) with the media being replaced with fresh media every other day. The cells were then trypsinized using 0.025% trypsin-EDTA for 5 min. The cell suspension was collected, the trypsin deactivated with 10% FBS, and centrifuged at 1000 rpm for 5 min. The cells were then counted using a hemocytometer. There was a typical yield of 3×10^6 cells per dish. The supernatant was aspirated and the cells were resuspended in KSFM and plated on 1 μg/cm^2 Vitrogen at a density of 5×10^3 cells/cm^2.
CFHNE Cell Ussing Chamber Preparation: The CFHNE cells were prepared for Ussing Chamber studies using Snapwell permeable supports (0.4 μm pore size) (Corning Costar, Cambridge, Mass.) coated with 1 μg/cm^2 Vitrogen. Cells were plated at 10^5 cells/cm^2 in KSFM. […]

acute effect on Isc (2.5 μM, acute): acute inhibitory effect on Isc
persistence of acute Isc effect after 24 hrs (2.5 μM, single addition, after 24 hrs): dissipated
inhibition of Isc 48 hours after exposure (reversibility) (5 μM for 2 hours, tested 48 hours later): negligible inhibition of Isc
decrease in potency after 24 hr preincubation versus acute addition (24 hr preincubation EC50 vs acute EC50): 50-80%
inhibition of spontaneous Isc in Cl- free buffer (Cl- free buffer, FIG. 1A): not reduced
EC50 (acute addition, data not shown, read-out: EC50 on Isc following acute addition of compound): 1 to 2 µM
EC50 (applied apically 2 hrs, washed, tested 24 hrs later, CFHNE monolayers, read-out: EC50 of prolonged effect on basal amiloride-inhibitable Isc): 5 to 10 µM
Compound: CCCCCCCCOC1C(OC(=O)CCC)C(OP(=O)(OCOC(=O)CC)OCOC(=O)CC)C(OP(=O)(OCOC(=O)CC)OCOC(=O)CC)C(OP(=O)(OCOC(=O)CC)OCOC(=O)CC)C1OP(=O)(OCOC(=O)CC)OCOC(=O)CC (stereo not drawn) [INO-E2, 2-O-butyryl-1-O-octyl-myo-inositol 3,4,5,6-tetrakisphosphate octakis (propionoxymethyl) ester]
effect of repeated exposure on basal Isc (1-2.5 μM repeatedly over 96 hours (every 24 hrs for 4 days), FIG. 3): corrective changes in basal Isc; also recorded: cumulative beneficial effect; also recorded: reverses the pathologically elevated basal Isc
acute effect on spontaneous amiloride-inhibitable Isc (acute addition, reduced chloride and chloride free buffers, FIG. 1A): inhibits spontaneous amiloride-inhibitable Isc in a dose-dependent fashion
